The text below walks through data of patent US8912180B2, “Heterocyclic compound” (Astellas Pharma Inc., priority 2010, dated 2014).

The target in one test is T1, human PI3Kδ enzyme (Homo sapiens, UniProt O00329).
T1 construct: purchased Millipore Corporation 14-604
In words: PI3Kδ enzyme inhibitory activity (PI3-Kinase HTRF Assay kit). As to conditions: human PI3Kδ 10 ng/well, ATP 30 μM, PIP2 10 μM, room temperature 30 minutes. The test is classed as biochemical. The method, then: 1. PI3Kδ Enzyme Inhibitory Activity
For the experiment, a PI3-Kinase HTRF Assay kit (Millipore Corporation, Catalogue No. 33-016) and a human PI3Kδ enzyme (Millipore Corporation, Catalogue No. 14-604) were used. The measurement method was in accordance with the appended instructions. The overview thereof is as follows.
PI3Kδ (10 ng/well), phosphatidylinositol-4,5-bisphosphate (10 μM), ATP (30 μM), and the test compound were mixed in a 384-well plate (total 20 μL), and incubated at room temperature for 30 minutes. EDTA and biotinylated phosphatidylinositol-3,4,5-triphosphate were added thereto to stop the reaction. Thereafter, a Europium labeled anti-GST antibody, a GST bond GRP1 PH domain, and streptavidin-APC were added thereto, followed by incubation overnight. An HTRF ratio was measured using an HTRF plate reader.
(In TR-FRET formats the signal depends on donor and acceptor labels being close together.)

The target of a further test is T2, Human PI3Kα (Homo sapiens, UniProt P42336).
T2 construct: purchased Millipore Corporation 14-602
Briefly: PI3Kα enzyme inhibitory activity (Kinase-Glo Plus luminescence). The test is classed as biochemical. As to conditions: human PI3Kα 12 ng/well, phosphatidylinositol 0.2 μg/well, 37° C. 3 hours. As to the method: 2. PI3Kα Enzyme Inhibitory Activity
Human PI3Kα (12 ng/well, Millipore Corporation, Catalogue No. 14-602), phosphatidylinositol (0.2 μg/well), and the test compound were mixed in a 384-well plate in a reaction buffer (50 mM Hepes, 10 mM NaCl, 10 mM MgCl2, 2 mM EGTA, 2 mM DTT, pH 7.3) (total 10 μl), and incubated at 37° C. for 3 hours. After the reaction, 10 μL of a Kinase-Glo Plus reagent (Promega, Catalogue No. V3772) was added thereto, and a luminescence was measured with a luminometer.
In general terms: In Kinase-Glo more light means more ATP remaining.

For the next test, the system named is IL-2 production. Briefly: Rat in vivo IL-2 production inhibition test (Concanavalin A induced). As to conditions: 10 mg/kg oral, 2 hours before Concanavalin A 15 mg/kg iv; blood IL-2 at 3 hours, vs vehicle control; male LEW rats. The method, then: 3. Rat In Vivo IL-2 Production Inhibition Test
For the experiment, male LEW/CrlCrlj rats (Charles River Laboratories, Japan, Inc.) (6-week old, body weight 130 to 180 g) were used. The test compound was suspended in a 0.5% methyl cellulose solution and orally administered at 5 mL/kg. IL-2 production was induced by tail vein injection of Concanavalin A (Funakoshi Corporation, Catalogue No. L-1000) at a dose of 15 mg/kg.
The test was carried out according to the protocol shown below. At 2 hours or 16 hours before administration of Concanavalin A, the test compound was orally administered to rats. At 3 hours after administration of Concanavalin A, blood was collected. The IL-2 concentration in blood was quantified using an ELISA kit (R&D Systems, Inc., Catalogue No. DY502E). An inhibition rate was calculated from the amount of IL-2 produced in a group administered with the test compound with respect to the amount of the IL-2 produced in a control group administered with a vehicle.

Test [1] has as its system Spleen cells prepared from male LEW/CrlCrlj rats (B cell proliferation). In words: Rat B cell proliferation inhibition test (anti-rat IgM, [3H]thymidine). The format is cell-based. As to conditions: anti-rat IgM 3 μg/well, 48 hours culture. The method, then:
4. Rat B Cell Proliferation Inhibition Test
Spleen cells (1.0×10^5 cells/well) prepared from male LEW/CrlCrlj rats (Charles River Laboratories, Japan, Inc.), mouse F(ab′)2 fragment anti-rat IgM (3 μg/well, SouthernBiotech Associates, Inc., Catalogue No. 3082-14) and the test compound dissolved in DMSO (final DMSO concentration 0.1%) were mixed in a 96-well plate using a 10% FCS-containing RPMI-1640 culture medium (total 200 μL). They were cultured in a CO2 incubator for 48 hours and [^3H]thymidine (925 GBq/mmol, Moravek Biochemicals, Inc., Catalogue No. MT6038) was added thereto at 0.037 MBq/well at 4 hours before completion of culture. Cells were harvested in a GF/C glass filter using a cell harvester, and a radioactivity on the filter was measured using a liquid scintillation counter.

For orientation: IC50 means the concentration that inhibits the measured activity by half.

Counter-ions that a name gives are not always drawn.

T1 sequence (O00329 whole entry): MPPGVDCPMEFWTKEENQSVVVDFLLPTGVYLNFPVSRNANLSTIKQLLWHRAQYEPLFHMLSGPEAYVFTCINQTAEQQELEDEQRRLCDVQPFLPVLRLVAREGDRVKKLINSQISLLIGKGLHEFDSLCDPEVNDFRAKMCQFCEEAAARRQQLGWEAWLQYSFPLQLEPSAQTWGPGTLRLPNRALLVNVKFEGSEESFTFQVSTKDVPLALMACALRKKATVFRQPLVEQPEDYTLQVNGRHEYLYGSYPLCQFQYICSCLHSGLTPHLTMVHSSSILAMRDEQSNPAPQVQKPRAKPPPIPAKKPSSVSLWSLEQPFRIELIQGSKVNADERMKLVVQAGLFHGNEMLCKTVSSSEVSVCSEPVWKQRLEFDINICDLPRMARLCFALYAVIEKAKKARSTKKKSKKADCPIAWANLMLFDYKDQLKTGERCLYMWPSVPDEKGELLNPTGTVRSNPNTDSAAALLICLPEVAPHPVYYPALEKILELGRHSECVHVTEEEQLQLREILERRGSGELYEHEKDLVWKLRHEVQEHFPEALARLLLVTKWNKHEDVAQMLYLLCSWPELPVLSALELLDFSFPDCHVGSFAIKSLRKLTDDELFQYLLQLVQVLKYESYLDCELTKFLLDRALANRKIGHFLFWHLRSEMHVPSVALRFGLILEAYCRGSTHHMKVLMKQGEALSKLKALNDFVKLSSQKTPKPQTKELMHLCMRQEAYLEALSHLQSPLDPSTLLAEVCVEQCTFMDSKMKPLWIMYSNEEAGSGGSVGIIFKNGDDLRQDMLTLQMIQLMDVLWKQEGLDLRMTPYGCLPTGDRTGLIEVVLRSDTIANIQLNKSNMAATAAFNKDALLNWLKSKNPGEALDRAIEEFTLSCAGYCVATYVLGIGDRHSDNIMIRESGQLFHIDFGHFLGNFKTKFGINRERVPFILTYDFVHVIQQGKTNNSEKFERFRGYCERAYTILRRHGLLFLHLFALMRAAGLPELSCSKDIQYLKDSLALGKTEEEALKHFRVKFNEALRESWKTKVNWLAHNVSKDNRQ
T1 sequence (P27986 whole entry partner): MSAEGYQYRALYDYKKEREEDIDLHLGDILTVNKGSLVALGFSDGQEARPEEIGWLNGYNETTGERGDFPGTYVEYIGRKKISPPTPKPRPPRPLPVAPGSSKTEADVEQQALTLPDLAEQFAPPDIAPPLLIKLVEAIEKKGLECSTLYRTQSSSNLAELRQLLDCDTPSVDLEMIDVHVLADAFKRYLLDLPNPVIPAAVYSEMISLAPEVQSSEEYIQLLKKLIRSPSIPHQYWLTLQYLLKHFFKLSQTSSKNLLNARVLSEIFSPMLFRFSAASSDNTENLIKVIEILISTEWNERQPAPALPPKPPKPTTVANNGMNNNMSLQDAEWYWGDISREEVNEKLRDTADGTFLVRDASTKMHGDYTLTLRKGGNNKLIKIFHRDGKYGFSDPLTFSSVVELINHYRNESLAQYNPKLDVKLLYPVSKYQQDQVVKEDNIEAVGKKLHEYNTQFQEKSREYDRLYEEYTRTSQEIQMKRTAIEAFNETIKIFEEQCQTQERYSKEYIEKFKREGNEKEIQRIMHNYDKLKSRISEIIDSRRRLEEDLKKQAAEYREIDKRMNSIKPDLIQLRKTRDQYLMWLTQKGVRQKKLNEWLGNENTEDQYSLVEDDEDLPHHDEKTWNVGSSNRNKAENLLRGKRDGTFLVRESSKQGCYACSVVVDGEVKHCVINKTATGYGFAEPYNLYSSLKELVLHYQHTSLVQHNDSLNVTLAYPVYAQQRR
T2 sequence (P42336 whole entry): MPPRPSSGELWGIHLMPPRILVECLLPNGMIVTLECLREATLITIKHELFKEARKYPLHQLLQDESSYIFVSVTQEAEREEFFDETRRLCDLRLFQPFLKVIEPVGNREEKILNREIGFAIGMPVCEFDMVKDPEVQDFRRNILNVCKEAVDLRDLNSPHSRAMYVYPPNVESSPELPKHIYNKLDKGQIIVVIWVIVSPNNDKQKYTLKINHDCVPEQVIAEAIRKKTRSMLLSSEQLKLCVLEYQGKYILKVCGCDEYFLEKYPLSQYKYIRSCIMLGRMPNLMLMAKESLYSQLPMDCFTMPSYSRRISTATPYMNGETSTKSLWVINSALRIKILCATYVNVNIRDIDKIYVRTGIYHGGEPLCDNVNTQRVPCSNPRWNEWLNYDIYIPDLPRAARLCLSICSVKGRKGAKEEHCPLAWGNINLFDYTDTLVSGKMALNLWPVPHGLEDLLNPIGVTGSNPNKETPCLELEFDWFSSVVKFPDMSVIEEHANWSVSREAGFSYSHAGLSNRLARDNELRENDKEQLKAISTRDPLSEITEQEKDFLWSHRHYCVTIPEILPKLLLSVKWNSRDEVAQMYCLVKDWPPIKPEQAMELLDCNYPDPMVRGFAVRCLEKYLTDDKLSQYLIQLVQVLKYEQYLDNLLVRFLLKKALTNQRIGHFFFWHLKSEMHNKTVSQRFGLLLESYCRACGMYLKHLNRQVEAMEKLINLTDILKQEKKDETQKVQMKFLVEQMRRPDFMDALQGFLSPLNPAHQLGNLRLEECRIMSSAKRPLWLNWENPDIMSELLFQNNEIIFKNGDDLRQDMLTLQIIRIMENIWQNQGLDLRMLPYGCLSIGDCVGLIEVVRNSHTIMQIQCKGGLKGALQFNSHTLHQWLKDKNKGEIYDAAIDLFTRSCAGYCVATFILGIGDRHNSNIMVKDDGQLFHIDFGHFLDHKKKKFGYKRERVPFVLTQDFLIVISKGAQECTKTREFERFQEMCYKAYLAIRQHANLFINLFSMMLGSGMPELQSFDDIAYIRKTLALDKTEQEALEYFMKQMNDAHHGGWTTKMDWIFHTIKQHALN
T2 sequence (P27986 whole entry partner): as the sequence (P27986 whole entry partner) above

As for `FC(F)c1nc2ccccc2n1-c1cc(N2CCOCC2)nc(NCC2CCN([C@H]3CC[C@H](F)CC3)CC2)n1` [Example 43-1, 4-[2-(difluoromethyl)-1H-benzimidazol-1-yl]-N-{[1-(trans-4-fluorocyclohexyl)piperidin-4-yl]methyl}-6-(morpholin-4-yl)pyrimidin-2-amine dihydrochloride], the concentration for half-maximal inhibition (IC50) on human PI3Kδ enzyme was 8 nM; at Human PI3Kα, 13 µM; in test [1], 2.1 nM. Moreover, the “inhibitory activity (IL-2 production inhibition rate)” value (shortened to “inhibitory activity”) with IL-2 production is recorded as 73%.

As for `FC(F)c1nc2ccccc2n1-c1cc(N2CCOCC2)nc(NCC2CCN(C3CCOCC3)CC2)n1` [Example 10], the IC50 against human PI3Kδ enzyme is 5.8 nM; on Human PI3Kα, greater than 3 µM; in test [1] it was 2.9 nM. Further, the “inhibitory activity” value in the test with IL-2 production amounted to 77%.

Regarding `CC(=O)N1CCC(N2CCC(CNc3nc(N4CCOCC4)cc(-n4c(C(F)F)nc5ccccc54)n3)CC2)CC1` [Example 33], the half-inhibitory concentration (IC50) is 11 nM at human PI3Kδ enzyme and greater than 3 µM at Human PI3Kα. The “inhibitory activity” value in the test with IL-2 production is on record as 75%.

As to `C[C@@H]1COCCN1c1cc(-n2c(C(F)F)nc3ccccc32)nc(NCC2CCN(C3CCOCC3)CC2)n1` [Example 37], the concentration for half-maximal inhibition (IC50) turned out to be 20 nM against human PI3Kδ enzyme, 1.9 µM on Human PI3Kα and 1.52 nM in test [1]. Also, the “inhibitory activity” value in the test on IL-2 production is 81%.

As for `CS(=O)(=O)N1CCC(N2CCC(CNc3nc(N4CCOCC4)cc(-n4c(C(F)F)nc5ccccc54)n3)CC2)CC1` [Example 34], the IC50 is 14 nM at human PI3Kδ enzyme and greater than 3 µM on Human PI3Kα. Besides, in the test with IL-2 production, the “inhibitory activity” value turned out to be 72%.

`OCC1CCC(N2CCC(CNc3nc(N4CCOCC4)cc(-n4c(C(F)F)nc5ccccc54)n3)CC2)CC1` (stereo not drawn) [Example 29]: the IC50 against human PI3Kδ enzyme was 45 nM; at Human PI3Kα, greater than 3 µM. For the same molecule, the “inhibitory activity” value in the test on IL-2 production is given as 51%.

As to `CCOC(=O)N[C@@H]1CCN([C@H]2CC[C@H](Oc3cc(-n4c(C(F)F)nc5ccccc54)nc(N4CCOCC4)n3)CC2)C1=O` [Example 423], the IC50 was 24 nM against human PI3Kδ enzyme, greater than 10 µM on Human PI3Kα and 3.1 nM in test [1].

For `CN1CCC(CNc2nc(N3CCOCC3)nc(-n3c(C(F)F)nc4ccccc43)n2)CC1` [Example A4], the 50% inhibitory concentration (IC50) against human PI3Kδ enzyme amounted to 31 nM; at Human PI3Kα, 0.73 µM. For the same molecule, the “inhibitory activity” value in the test on IL-2 production turned out to be 58%.

For `COC(=O)N1CCC(C(=O)N2CC[C@H](Nc3cc(-n4c(C(F)F)nc5ccccc54)nc(N4CCOCC4)n3)C2)CC1` [A298], the 50% inhibitory concentration (IC50) on human PI3Kδ enzyme was determined as 28 nM; at Human PI3Kα, 3.5 µM; in test [1], 1.2 nM.
